In paper PMC11208336 (Frontiers in Cellular and Infection Microbiology, 2024):

Target: T1, HmuY^Pe (Porphyromonas endodontalis, UniProt C3JC46)
T1 construct: gene POREN0001_0444
Experiment: biochemical

T1 sequence (C3JC46 entry or part of it): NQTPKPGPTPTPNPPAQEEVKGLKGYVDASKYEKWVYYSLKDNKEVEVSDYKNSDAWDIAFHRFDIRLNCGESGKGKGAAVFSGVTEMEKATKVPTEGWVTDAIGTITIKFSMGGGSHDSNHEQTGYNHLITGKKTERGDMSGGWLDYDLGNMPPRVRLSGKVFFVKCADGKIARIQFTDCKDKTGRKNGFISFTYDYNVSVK

C=CC1=C(C)C2=Cc3c(C=C)c(C)c4[n]3[Fe][n]3c(c(C)c(CCC(=O)O)c3=CC3=NC(=C4)C(C)=C3CCC(=O)O)=CC1=N2 [Fe(II)heme]
Kd: 0.041 µM
